Six compounds from ChEMBL document CHEMBL1201862, “PubChem BioAssay data set” (2004) can be followed below.

Each structure is given as a SMILES string.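 Interpolation was linear, between the two tested concentrations surrounding the appropriate level; five concentrations were tested over 48 hours in 96-well plates. GI50 = concentration required for 50% inhibition of growth.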 Activity calls are given as the source filed them. Rule as the data show it: active = GI50 up to about 1.1 µM and inactive = higher.

Assay in all cases: NCI tumour cell line growth inhibition, 48 h
Test [1] concerns MCF7.
Test [2] has as its system 786-0.
The test system of test [3] is MOLT-4.
Test [4] relates to HOP-92.
Test [5] has as its system K562.
For test [6], the system named is U-251.
The test system of test [7] is HCC 2998.
In test [8] the test system is HOP-62.
Test [9] deals with SR.
The test system of test [10] is DU-145.
The subject of test [11] is SK-MEL-28.
Test [12] relates to RXF 393.
Test [13] relates to COLO 205.
Test [14] deals with SK-MEL-2.
The test system of test [15] is SW-620.
The subject of test [16] is HL-60.
In test [17] the test system is UACC-62.
The test system of test [18] is M14.
In test [19] the test system is UO-31.
The subject of test [20] is CCRF-CEM.

Turning to `Cc1cc(O)c(-c2cc(O)c(C)cc2O)cc1O`, the GI50 in test [1] is 10 µM (inactive); in test [2], 2.94 µM (inactive); in test [3], 2.06 µM (inactive); in [4] it was 2.25 µM (inactive); in test [5] it was 1.86 µM (inactive); in test [6], 15 µM (inactive). The GI50 is 14.1 µM (inactive) in [7]; 16.7 µM (inactive) in test [8]; 0.977 µM (active) in test [9]; 14.9 µM (inactive) in [10]; 9.23 µM (inactive) in test [11]; 2.38 µM (inactive) in test [12]. Moreover, the GI50 was 7.16 µM (inactive) in test [13]; 17.2 µM (inactive) in test [14]; 2.34 µM (inactive) in test [15]; 1.71 µM (inactive) in test [16]; 15.6 µM (inactive) in [17]; 7.67 µM (inactive) in test [18]. For the same compound, the GI50 is 1.92 µM (inactive) in [19] and 1.08 µM (active) in test [20].
As for `CCOC(=O)c1c(CN2CCNCC2)nc2ccc(Cl)cc2c1-c1ccccc1`, the GI50 in test [1] is 11 µM (inactive); in test [2], 1.65 µM (inactive); in test [3], 1.86 µM (inactive); in test [4], 1.17 µM (inactive); in [5], 2.14 µM (inactive); in test [6] it was 12.9 µM (inactive). The GI50 is 1.6 µM (inactive) in [7]; 6.95 µM (inactive) in test [8]; 1.78 µM (inactive) in [9]; 16.2 µM (inactive) in test [10]; 3.83 µM (inactive) in test [11]; 2.58 µM (inactive) in [12]. Further, the GI50 is 2.03 µM (inactive) in [13]; 1.79 µM (inactive) in test [14]; 2.03 µM (inactive) in test [15]; 1.98 µM (inactive) in test [16]; 1.77 µM (inactive) in test [17]; 1.81 µM (inactive) in test [18]. Moreover, the values for the GI50 in test [19] and in [20] were 3.32 µM (inactive) and 2.51 µM (inactive), respectively.
Take `CCN(CC)CCn1nc(N)c2nc3cc(Cl)ccc3nc21`: the GI50 was 36.1 µM (inactive) in test [1]; 62.8 µM (inactive) in [2]; 33.4 µM (inactive) in test [3]; > 100 µM (inactive) in test [4]; 40.7 µM (inactive) in test [5]; > 100 µM (inactive) in [6]. The GI50 in test [7] was > 100 µM (inactive); in test [8], > 100 µM (inactive); in [9], 82.8 µM (inactive); in test [10], > 100 µM (inactive); in [11], 76.2 µM (inactive); in test [12], 88.9 µM (inactive). Besides, the GI50 was 35.7 µM (inactive) in test [13]; 64.3 µM (inactive) in test [14]; 63 µM (inactive) in [15]; 61.4 µM (inactive) in test [16]; 45.9 µM (inactive) in [17]; 37.8 µM (inactive) in test [18]. In addition, the results for the GI50 in test [19] and in test [20] were 23.8 µM (inactive) and > 10 µM (inactive), respectively.
Turning to `COc1ccc(CC2OC3(CCCCC3)CC3CCCCN32)cc1` (stereo not given), the GI50 in test [1] is 72.9 µM (inactive); in [2], > 100 µM (inactive); in test [3] it was 75.9 µM (inactive); in test [4], 98.9 µM (inactive); in test [5], 27.1 µM (inactive); in [6] it was > 100 µM (inactive). The GI50 is > 100 µM (inactive) in test [7]; > 100 µM (inactive) in test [8]; 28.8 µM (inactive) in test [9]; > 100 µM (inactive) in test [10]; > 100 µM (inactive) in [11]; > 100 µM (inactive) in test [12]. The GI50 in test [13] was > 100 µM (inactive); in [14], > 100 µM (inactive); in [15] it was 39.4 µM (inactive); in [16] it was > 100 µM (inactive); in test [17], > 100 µM (inactive); in [18], 76.6 µM (inactive). In addition, the GI50 is > 100 µM (inactive) in test [19] and 47 µM (inactive) in test [20].
Regarding `CC(C)(C)c1cc(OCc2nnc3sc(S)nn23)c(Cl)cc1OCc1nnc2sc(S)nn12`, the GI50 in test [1] was 15.6 µM (inactive); in test [2] it was 31 µM (inactive); in [3], 23.8 µM (inactive); in test [4] it was 17.5 µM (inactive); in [5] it was 32.6 µM (inactive); in test [6], 29.1 µM (inactive). Besides, the GI50 is 31.8 µM (inactive) in test [7]; 44.1 µM (inactive) in test [8]; 18.3 µM (inactive) in [9]; 30.3 µM (inactive) in test [10]; 22.3 µM (inactive) in test [11]; 22.4 µM (inactive) in test [12]. The GI50 is 39.1 µM (inactive) in [13]; 27.4 µM (inactive) in [14]; 31.9 µM (inactive) in test [15]; 22.5 µM (inactive) in [16]; 17.4 µM (inactive) in [17]; 25.9 µM (inactive) in test [18]. Moreover, the GI50 in [19] was 43.9 µM (inactive); in [20] it was 11.3 µM (inactive).
As to `C[N+](C)(C)CCCCCc1c2nc(c(CCCCC[N+](C)(C)C)c3ccc([nH]3)c(CCCCC[N+](C)(C)C)c3nc(c(CCCCC[N+](C)(C)C)c4ccc1[nH]4)C=C3)C=C2`, the GI50 in test [1], in test [2], in [3], in [4], in test [5] and in test [6] was > 100 µM (inactive) throughout. Further, the GI50 in test [7] was > 100 µM (inactive); in test [8] it was > 100 µM (inactive); in test [9] it was > 100 µM (inactive); in [10], > 100 µM (inactive); in [11] it was > 100 µM (inactive); in [12], 2.77 µM (inactive). Moreover, the GI50 in [13], in test [14], in test [15], in test [16], in test [17] and in [18] was > 100 µM (inactive) in each case. The GI50 in test [19] and in test [20] was > 100 µM (inactive) each time.
